Assay results published in US9074014B2 (Ipsen Pharma S.A.S., priority 2008, dated 2015).
*1 amine or outer side, *2 acyl side, *3 side chain or, on linkers, in order; H or OH if unused. Where a SMILES comes first, the peptide text is derived from it. Where no end group is shown, it is not given here. [ ]: non-standard residue; d: D form. The star is where a group is joined. Desaminotyrosyl = O=C(CCc1ccc(O)cc1)*; NMeY = CN[C@@H](Cc1ccc(O)cc1)C(=O)O; X2 = O=C([C@@H]1CC(O)CN1[*:1])[*:2]; Tic = O=C(O)[C@@H]1Cc2ccccc2CN1; ΔPro = O=C(O)[C@@H]1C=CCN1; Pip = O=C(O)[C@@H]1CCCCN1; Ac6c = NC1(C(=O)O)CCCCC1; Nle = CCCC[C@H](N)C(=O)O; Ac5c = NC1(C(=O)O)CCCC1; Aib = CC(C)(N)C(=O)O

Columns and labels:
[1] = Human plasma half-life assay; assay type: in vitro ADME
[2] = Rat plasma half-life assay; assay type: in vitro ADME; set-up: half-life: dose or concentration left out as unconfirmed; conditions: for half-life at 0.1 mg/ml: read-out: Rat Plasma T½ (converted)
[3] = human plasma, 37° C., LC-MS, read-out: Human Plasma T½ (converted)

CC[C@H](C)[C@H](NC(=O)[C@H](CCCCN)NC(=O)[C@H](CC(=O)O)NC(=O)[C@H](CCSC)NC(=O)[C@H](C)NC(=O)[C@@H](NC(=O)C1(NC(=O)[C@H](Cc2ccc(O)cc2)NC(=O)[C@H](CC(=O)O)NC(=O)[C@H](CO)NC(=O)[C@@H](NC(=O)[C@H](Cc2ccccc2)NC(=O)[C@@H](NC(=O)CNC(=O)[C@@H]2CCCN2C(=O)C(C)(C)NC(=O)[C@@H](N)Cc2ccc(O)cc2)[C@@H](C)O)[C@@H](C)CC)CCCC1)[C@@H](C)CC)C(=O)N[C@@H](Cc1c[nH]cn1)C(=O)N[C@@H](CCC(N)=O)C(=O)N[C@@H](CCC(N)=O)C(=O)N[C@@H](CC(=O)O)C(=O)N[C@@H](Cc1ccccc1)C(=O)N[C@H](C(=O)N[C@@H](CC(N)=O)C(=O)N[C@@H](Cc1c[nH]c2ccccc12)C(=O)N[C@@H](CC(C)C)C(=O)N[C@@H](CC(C)C)C(=O)N[C@@H](C)C(=O)N[C@@H](CCC(N)=O)C(=O)N[C@@H](CCCCN)C(N)=O)C(C)C [Example 110, (Aib^2, Pro^3, A5c^11)hGIP(1-30)-NH2] (H-Y[Aib]PGTFISDY[Ac5c]IAMDKIHQQDFVNWLLAQK-NH2; N-terminus assumed)
half-life at 0.1 mg/ml [1, 3]: 13.7 h
half-life at 0.1 mg/ml ([2]; rat plasma, 37° C., LC-MS): 25.8 h

CCCC[C@H](NC(=O)[C@H](C)NC(=O)[C@@H](NC(=O)C1(NC(=O)[C@H](Cc2ccc(O)cc2)NC(=O)[C@H](CC(=O)O)NC(=O)[C@H](CO)NC(=O)[C@@H](NC(=O)[C@H](Cc2ccccc2)NC(=O)[C@@H](NC(=O)CNC(=O)[C@@H]2CCCN2C(=O)C(C)(C)NC(=O)[C@@H](N)Cc2ccc(O)cc2)[C@@H](C)O)[C@@H](C)CC)CCCC1)[C@@H](C)CC)C(=O)N[C@@H](CC(=O)O)C(=O)N[C@@H](CCCCN)C(=O)N[C@H](C(=O)N[C@@H](Cc1c[nH]cn1)C(=O)N[C@@H](CCC(N)=O)C(=O)N[C@@H](CCC(N)=O)C(=O)N[C@@H](CC(=O)O)C(=O)N[C@@H](Cc1ccccc1)C(=O)N[C@H](C(=O)N[C@@H](CC(N)=O)C(=O)N[C@@H](Cc1c[nH]c2ccccc12)C(=O)N[C@@H](CC(C)C)C(=O)N[C@@H](CC(C)C)C(=O)N[C@@H](C)C(=O)N[C@@H](CCC(N)=O)C(=O)N[C@@H](CCCCN)C(N)=O)C(C)C)[C@@H](C)CC [Example 111, (Aib^2, Pro^3, A5c^11, Nle^14)hGIP(1-30)-NH2]
half-life at 0.1 mg/ml [1, 3]: > 54 h
half-life at 0.1 mg/ml ([2]; rat plasma, 37° C., LC-MS): > 54 h

CC[C@H](C)[C@H](NC(=O)[C@H](CCCCN)NC(=O)[C@H](CC(=O)O)NC(=O)C1(NC(=O)[C@H](C)NC(=O)[C@@H](NC(=O)C2(NC(=O)[C@H](Cc3ccc(O)cc3)NC(=O)[C@H](CC(=O)O)NC(=O)[C@H](CO)NC(=O)[C@@H](NC(=O)[C@H](Cc3ccccc3)NC(=O)[C@@H](NC(=O)CNC(=O)[C@@H]3CCCN3C(=O)C(C)(C)NC(=O)[C@@H](N)Cc3ccc(O)cc3)[C@@H](C)O)[C@@H](C)CC)CCCC2)[C@@H](C)CC)CCCCC1)C(=O)N[C@@H](Cc1c[nH]cn1)C(=O)N[C@@H](CCC(N)=O)C(=O)N[C@@H](CCC(N)=O)C(=O)N[C@@H](CC(=O)O)C(=O)N[C@@H](Cc1ccccc1)C(=O)N[C@H](C(=O)N[C@@H](CC(N)=O)C(=O)N[C@@H](Cc1c[nH]c2ccccc12)C(=O)N[C@@H](CC(C)C)C(=O)N[C@@H](CC(C)C)C(=O)N[C@@H](C)C(=O)N[C@@H](CCC(N)=O)C(=O)N[C@@H](CCCCN)C(N)=O)C(C)C [Example 112, (Aib^2, Pro^3, A5c^11, A6c^14)hGIP(1-30)-NH2] (H-Y[Aib]PGTFISDY[Ac5c]IA[Ac6c]DKIHQQDFVNWLLAQK-NH2; N-terminus assumed)
half-life at 0.1 mg/ml [1, 3]: 59.7 h
half-life at 0.1 mg/ml ([2]; rat plasma, 37° C., LC-MS): > 72 h

Desaminotyrosyl-AEGTFISDYSI[Aib]MDKIHQQDFVNWLLAQKGKKNDWKHNITQ-OH [Example 101, (4Hppa^1, Aib^13)hGIP(1-42)-OH]
half-life at 0.1 mg/ml [1, 3]: 47.5 h
half-life at 0.1 mg/ml ([2]; rat plasma, 37° C., LC-MS): 13.4 h

H-YAPGTFISDYSIAMDKIHQQDFVNWLLAQKGKKNDWKHNITQ-OH [[Pro^3]hGIP(1-42)-OH, reference compound]
half-life at 0.1 mg/ml ([1]; human, plasma, same experimental conditions as Table 2, read-out: human plasma half-life (converted)): 10.8 h
half-life ([2]; rat, plasma, same experimental conditions as Table 2, read-out: rat plasma half-life (converted)): 0.8 h

H-YA[X2]GTFISDYSIA[Ac6c]DKIHQQDFVNWLLAQKGKKNDWKHNITQ-OH [Example 84, (4Hyp^3, A6c^14)hGIP(1-42)-OH]
half-life at 0.1 mg/ml [1, 3]: 3.3 h
half-life at 0.1 mg/ml ([2]; rat plasma, 37° C., LC-MS): 1.9 h

H-YA[X2]GTFISDY[Ac5c]IAMDKIHQQDFVNWLLAQKGKKNDWKHNITQ-OH [Example 87, (4Hyp^3, A5c^11)hGIP(1-42)-OH]
half-life at 0.1 mg/ml [1, 3]: 38.7 h
half-life at 0.1 mg/ml ([2]; rat plasma, 37° C., LC-MS): 3.4 h

H-[NMeY][Aib]EGTFISDY[Ac5c]IA[Nle]DKIHQQDFVNWLLAQKGKKNDWKHNITQ-OH [Example 113, (NMe-Tyr^1, Aib^2, A5c^11, Nle^14)hGIP(1-42)-OH]
half-life at 0.1 mg/ml [1, 3]: 61.9 h
half-life at 0.1 mg/ml ([2]; rat plasma, 37° C., LC-MS): 27 h

YAPGTFISDYSIA[Ac6c]DKIHQQDFVNWLLAQKGKKNDWKHNITQ-OH [Example 91, (Pro^3, A6c^14)hGIP(1-42)-OH]
half-life at 0.1 mg/ml [1, 3]: 13.4 h
half-life at 0.1 mg/ml ([2]; rat plasma, 37° C., LC-MS): 1 h

YAPGTFISDYSI[Aib]MDKIHQQDFVNWLLAQKGKKNDWKHNITQ [Example 75, (Pro^3, Aib^13)hGIP(1-42)-OH]
half-life at 0.1 mg/ml [1, 3]: 26.1 h
half-life at 0.1 mg/ml ([2]; rat plasma, 37° C., LC-MS): 1.9 h

YAPGTFISDYSI[Aib][Nle]DKIHQQDFVNWLLAQKGKKNDWKHNITQ-OH [Example 62, (Pro^3, Aib^13, Nle^14)hGIP(1-42)-OH]
half-life at 0.1 mg/ml [1, 3]: 11.4 h
half-life at 0.1 mg/ml ([2]; rat plasma, 37° C., LC-MS): 1.4 h

YAPGTFISDY[Ac5c]IA[Ac6c]DKIHQQDFVNWLLAQKGKKNDWKHNITQ-OH [Example 102, (Pro^3, A5c^11, A6c^14)hGIP(1-42)-OH]
half-life at 0.1 mg/ml [1, 3]: 54.1 h
half-life at 0.1 mg/ml ([2]; rat plasma, 37° C., LC-MS): 1.7 h

YA[Pip]GTFISDYSI[Aib]MDKIHQQDFVNWLLAQKGKKNDWKHNITQ [Example 65, (hPro^3, Aib^13)hGIP(1-42)-OH]
half-life at 0.1 mg/ml [1, 3]: 14.3 h
half-life at 0.1 mg/ml ([2]; rat plasma, 37° C., LC-MS): 1.5 h

YA[Pip]GTFISDYSI[Aib][Nle]DKIHQQDFVNWLLAQKGKKNDWKHNITQ-OH [Example 63, (hPro^3, Aib^13, Nle^14)hGIP(1-42)-OH]
half-life at 0.1 mg/ml [1, 3]: 14.2 h
half-life at 0.1 mg/ml ([2]; rat plasma, 37° C., LC-MS): 1.4 h

YA[Tic]GTFISDYSI[Aib]MDKIHQQDFVNWLLAQKGKKNDWKHNITQ [Example 66, (Tic^3, Aib^13)hGIP(1-42)-OH]
half-life at 0.1 mg/ml [1, 3]: 19.1 h
half-life at 0.1 mg/ml ([2]; rat plasma, 37° C., LC-MS): 8.8 h

YA[Tic]GTFISDY[Ac5c]IAMDKIHQQDFVNWLLAQKGKKNDWKHNITQ-OH [Example 82, (Tic^3, A5c^11)hGIP(1-42)-OH]
half-life at 0.1 mg/ml [1, 3]: 9.7 h
half-life at 0.1 mg/ml ([2]; rat plasma, 37° C., LC-MS): 10.2 h

YA[Tic]GTFISDY[Ac5c]IA[Ac6c]DKIHQQDFVNWLLAQKGKKNDWKHNITQ-OH [Example 89, (Tic^3, A5c^11, A6c^14)hGIP(1-42)-OH]
half-life at 0.1 mg/ml [1, 3]: > 48 h
half-life at 0.1 mg/ml ([2]; rat plasma, 37° C., LC-MS): 11.8 h

YA[X2]GTFISDYSI[Aib]MDKIHQQDFVNWLLAQKGKKNDWKHNITQ [Example 67, (4Hyp^3, Aib^13)hGIP(1-42)-OH]
half-life at 0.1 mg/ml [1, 3]: > 33 h
half-life at 0.1 mg/ml ([2]; rat plasma, 37° C., LC-MS): 1.6 h

YA[ΔPro]GTFISDYSI[Aib][Nle]DKIHQQDFVNWLLAQKGKKNDWKHNITQ-OH [Example 64, (Dhp^3, Aib^13, Nle^14)hGIP(1-42)-OH]
Human Plasma T½ ([1]; human plasma, 37° C., LC-MS): 41.3 h
Rat Plasma T½ ([2]; rat plasma, 37° C., LC-MS): 47.5 h

YGEGTFISDY[Ac5c]IAMDKIHQQDFVNWLLAQKGKKNDWKHNITQH-OH [Example 117, (Gly^2, A5c^11, His^43)hGIP(1-43)-OH]
half-life at 0.1 mg/ml [1, 3]: 25.2 h
half-life at 0.1 mg/ml ([2]; rat plasma, 37° C., LC-MS): 10.5 h

Y[Ac5c]EGTF[Ac5c]SDYSIA[Ac6c]DKIHQQDFVNWLLAQKGKKNDWKHNITQ-OH [Example 56, (A5c^2,7, A6c^14)hGIP(1-42)-OH]
half-life at 0.1 mg/ml [1, 3]: 16 h
half-life at 0.1 mg/ml ([2]; rat plasma, 37° C., LC-MS): 9.2 h
